According to patent US20240277658A1, “NLRP3 ACTIVATORS FOR USE IN THE TREATMENT OF INFECTIOUS DISEASES OR CANCER BY ACTIVATING NLRP3 INFLAMMASOME” (ALBERT-LUDWIGS-UNIVERSITÄT FREIBURG, priority 2020, published 2024):
Several values for one entry are separate records, joined by “and”; a condition that tells them apart may be missing. Identical values can stand only once. Like-named read-outs stand apart in the source and are kept apart here. One block for each compound: values may come before it.

Tests used:
[1] = target: T1, NLRP3 inflammasome (Mus musculus, UniProt Q8R4B8); experiment: IL-1β release from LPS-primed BMDCs (ELISA) as readout of NLRP3 inflammasome activation; assay type: cell-based
T1 construct: endogenous in cells; host or cells: primary mouse bone marrow-derived dendritic cells (BMDCs), LPS-primed
How it was run: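 NLRP3 inflammasome activation was read out as IL-1β released into the supernatant, measured by ELISA. Murine BMDCs were primed with LPS (50 ng ml^−1, 3 hours), then incubated with compounds for 3 hours, with each condition run in three technical replicates. Nigericin at 5 μM acted as the positive control activator, and IL-1β release was also expressed as a percentage of that control.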

[2] = test system: BMDCs; experiment: LDH release (lytic cell death, pyroptosis) from LPS-primed BMDCs; assay type: cell-based, mouse; conditions: for Average (% positive control): LDH release; for cytotoxicity at 50 µM / cytotoxicity at 20 µM / cytotoxicity at 40 µM / cytotoxicity at 80 µM / cytotoxicity at 25 µM / cytotoxicity at 75 µM / cytotoxicity at 18.75 µM / cytotoxicity at 37.5 µM: Mus musculus, BMDC
How it was run: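 LDH released into medium, detected colorimetrically, served as the pyroptosis read-out in triplicate. LPS-primed (50 ng ml^−1, 3 h) murine bone marrow-derived dendritic cells received test compounds, typically 50 μM, or nigericin (5 μM), R837 or CL097 (100 μM) for 3 hours.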

[3] = IL-1β release, compound 50 μM, positive control nigericin 5 μM
[4] = compound 50 μM, LPS-primed BMDCs
[5] = single replicates, compound 50 μM, LPS-primed BMDCs
[6] = compound 50 μM, positive control nigericin 5 μM
[7] = compound 50 μM, LPS-primed BMDCs, read-out: Average LDH release (% of max.)
[8] = single replicates, compound 50 μM, LPS-primed BMDCs, read-out: LDH release (% of max.)

T1 sequence (Q8R4B8 whole entry): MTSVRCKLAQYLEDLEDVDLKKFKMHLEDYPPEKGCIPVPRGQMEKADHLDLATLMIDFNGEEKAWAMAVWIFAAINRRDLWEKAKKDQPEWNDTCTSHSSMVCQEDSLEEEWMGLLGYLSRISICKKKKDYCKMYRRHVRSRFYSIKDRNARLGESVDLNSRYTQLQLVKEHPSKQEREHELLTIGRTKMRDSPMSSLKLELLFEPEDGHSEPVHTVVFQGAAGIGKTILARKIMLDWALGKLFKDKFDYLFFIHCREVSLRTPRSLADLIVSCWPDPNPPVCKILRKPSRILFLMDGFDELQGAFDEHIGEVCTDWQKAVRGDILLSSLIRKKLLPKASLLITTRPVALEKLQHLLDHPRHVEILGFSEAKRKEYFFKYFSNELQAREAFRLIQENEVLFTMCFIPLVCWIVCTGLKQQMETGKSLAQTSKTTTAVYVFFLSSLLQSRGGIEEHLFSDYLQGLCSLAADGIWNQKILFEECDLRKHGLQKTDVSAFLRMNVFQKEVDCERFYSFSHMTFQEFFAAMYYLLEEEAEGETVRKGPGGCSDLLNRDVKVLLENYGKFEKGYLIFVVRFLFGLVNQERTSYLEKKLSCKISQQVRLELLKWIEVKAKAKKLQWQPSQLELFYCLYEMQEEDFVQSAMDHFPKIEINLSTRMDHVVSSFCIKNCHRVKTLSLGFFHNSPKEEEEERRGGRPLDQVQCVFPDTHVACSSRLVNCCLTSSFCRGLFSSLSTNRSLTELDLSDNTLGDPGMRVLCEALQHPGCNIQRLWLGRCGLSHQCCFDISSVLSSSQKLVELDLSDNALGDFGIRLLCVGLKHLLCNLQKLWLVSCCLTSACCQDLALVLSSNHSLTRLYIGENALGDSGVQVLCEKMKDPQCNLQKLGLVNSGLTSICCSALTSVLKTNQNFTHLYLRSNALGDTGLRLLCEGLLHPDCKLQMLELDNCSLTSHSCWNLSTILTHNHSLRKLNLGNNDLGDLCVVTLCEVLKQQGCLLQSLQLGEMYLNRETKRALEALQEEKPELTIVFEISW

SMILES: N#Cc1ccc(NC(=O)Nc2ccc3ncccc3c2)cc1 [JB011, 1-(4-cyanophenyl)-3-(quinolin-6-yl)urea]
Average IL-1β ([1]; 20 μM): 0.576 ng/mL
IL-1β ([1]; 20 μM, individual replicate values): 0.562 ng/mL and 0.612 ng/mL and 0.553 ng/mL
Average IL-1β ([1]; 40 μM): 0.604 ng/mL
IL-1β ([1]; 40 μM, individual replicate values): 0.538 ng/mL and 0.564 ng/mL and 0.711 ng/mL
Average IL-1β ([1]; 80 μM): 0.752 ng/mL
IL-1β ([1]; 80 μM, individual replicate values): 0.912 ng/mL and 0.737 ng/mL and 0.607 ng/mL
Average (% positive control) ([1]; IL-1β, 20 μM, positive control EN22): 29.413 % positive control
Average (% positive control) ([1]; IL-1β, 40 μM, positive control EN22): 30.877 % positive control
Average (% positive control) ([1]; IL-1β, 80 μM, positive control EN22): 38.413 % positive control
Average (% positive control) ([2]; 20 μM, positive control EN22 20 μM): 21.883 % positive control
Average (% positive control) ([2]; 40 μM, positive control EN22 20 μM): 24.799 % positive control
Average (% positive control) ([2]; 80 μM, positive control EN22 20 μM): 31.296 % positive control
cytotoxicity at 20 µM ([2]; 20 μM, individual replicate values, read-out: LDH release (% of max.)): 11.5%
cytotoxicity at 20 µM ([2]; 20 μM, read-out: Average LDH release (% of max.)): 11.7%
cytotoxicity at 40 µM ([2]; 40 μM, individual replicate values, read-out: LDH release (% of max.)): 12.6%
cytotoxicity at 40 µM ([2]; 40 μM, read-out: Average LDH release (% of max.)): 13.2%
cytotoxicity at 80 µM ([2]; 80 μM, individual replicate values, read-out: LDH release (% of max.)): 16.4%
cytotoxicity at 80 µM ([2]; 80 μM, read-out: Average LDH release (% of max.)): 16.7%

SMILES: CC(=NO)c1ccc(NC(=O)Nc2ccccc2)cc1 [L01.095, 3-{4-[1-(hydroxyimino)-ethyl]phenyl}-1-phenyl-urea]
Average (% positive control) [1, 3]: 1.703 % positive control
Average IL-1β [1, 4]: 0.122 ng/mL
IL-1β [1, 5]: 0.137 ng/mL and 0.128 ng/mL and 0.102 ng/mL
Average (% positive control) [2, 6]: 7.959 % positive control
cytotoxicity at 50 µM [2, 7]: 5.82%
cytotoxicity at 50 µM [2, 8]: 5.21%

SMILES: CC(C)C(NC(=O)Nc1cccc(C(F)(F)F)c1)c1nc(-c2cccnc2)no1 (stereo not drawn) [L01.005, 3-{2-methyl-1-[3-(pyridin-3-yl)-1,2,4-oxadiazol-5-yl]propyl}-1-[3-(trifluoromethyl)-phenyl]urea]
Average (% positive control) [1, 3]: 0.980 % positive control
Average IL-1β [1, 4]: 0.070 ng/mL
IL-1β [1, 5]: 0.053 ng/mL and 0.074 ng/mL and 0.084 ng/mL
Average (% positive control) [2, 6]: 20.238 % positive control
cytotoxicity at 50 µM [2, 7]: 14.8%
cytotoxicity at 50 µM [2, 8]: 9.31%

SMILES: O=C(Nc1ccccc1)Nc1cccc(NC(=O)C2CC2)c1 [L01.084, N-{3-[(phenylcarbamo-yl)amino]phenyl}cyclo-propanecarboxamide]
Average (% positive control) [1, 3]: 1.362 % positive control
Average IL-1β [1, 4]: 0.098 ng/mL
IL-1β [1, 5]: 0.083 ng/mL and 0.111 ng/mL and 0.099 ng/mL
Average (% positive control) [2, 6]: 8.054 % positive control
cytotoxicity at 50 µM [2, 7]: 5.89%
cytotoxicity at 50 µM [2, 8]: 6%

SMILES: Cc1c(F)cccc1NC(=O)Nc1cccc(Cl)c1 [AH3, 1-(3-chlorophenyl)-3-(3-fluoro-2-methylphenyl) urea]
Average IL-1β ([1]; 25 μM, AH series table): 0.588 ng/mL
IL-1β ([1]; 25 μM, individual replicate values, AH series table): 0.540 ng/mL and 0.630 ng/mL and 0.593 ng/mL
Average IL-1β ([1]; 50 μM, AH series table): 1.519 ng/mL
IL-1β ([1]; 50 μM, individual replicate values, AH series table): 1.267 ng/mL and 1.615 ng/mL and 1.675 ng/mL
Average IL-1β ([1]; 75 μM, AH series table): 2.224 ng/mL
IL-1β ([1]; 75 μM, individual replicate values, AH series table): 2.288 ng/mL and 2.351 ng/mL and 2.032 ng/mL
Average (% positive control) ([1]; IL-1β, 25 μM, positive control EN22 10 μM): 5.875 % positive control
Average (% positive control) ([1]; IL-1β, 50 μM, positive control EN22 10 μM): 15.193 % positive control
Average (% positive control) ([1]; IL-1β, 75 μM, positive control EN22 10 μM): 22.240 % positive control
Average (% positive control) ([2]; 25 μM, positive control EN22 10 μM): 16.733 % positive control
Average (% positive control) ([2]; 50 μM, positive control EN22 10 μM): 29.496 % positive control
Average (% positive control) ([2]; 75 μM, positive control EN22 10 μM): 44.370 % positive control
cytotoxicity at 25 µM ([2]; 25 μM, AH series table, read-out: Average LDH release (% of max.)): 12.9%
cytotoxicity at 25 µM ([2]; 25 μM, individual replicate values, AH series table, read-out: LDH release (% of max.)): 12.8%
cytotoxicity at 50 µM ([2]; 50 μM, AH series table, read-out: Average LDH release (% of max.)): 22.7%
cytotoxicity at 50 µM ([2]; 50 μM, individual replicate values, AH series table, read-out: LDH release (% of max.)): 22.2%
cytotoxicity at 75 µM ([2]; 75 μM, individual replicate values, read-out: LDH release (% of max.)): 34.6%
cytotoxicity at 75 µM ([2]; 75 μM, read-out: Average LDH release (% of max.)): 34.1%

Now from value to compound, other results behind:

Average (% positive control) [1, 3]: 23.826 % positive control
Average IL-1β [1, 4]: 1.708 ng/mL
SMILES: Cc1ccc(NC(=O)Nc2ccccc2)cc1NC(=O)NC(C)C [L01.041, 3-(4-methyl-3-[(propan-2-yl)carbamoylamino}-phenyl)-1-phenylurea]
IL-1β [1, 5]: 1.508 ng/mL and 1.847 ng/mL and 1.769 ng/mL
Average (% positive control) [2, 6]: 32.832 % positive control
cytotoxicity at 50 µM [2, 7]: 24%
cytotoxicity at 50 µM [2, 8]: 24.4%

Average (% positive control) [1, 3]: 15.216 % positive control
Average IL-1β [1, 4]: 1.091 ng/mL
SMILES: O=C(Nc1ccccc1)Nc1ccc(NC(=O)C2CCOC2)cc1 (stereo not drawn) [L01.101, N-{4-[(phenylcarbamo-yl)amino]phenyl}oxo-lane-3-carboxamide]
IL-1β [1, 5]: 1.160 ng/mL and 1.071 ng/mL and 1.041 ng/mL
Average (% positive control) [2, 6]: 27.161 % positive control
cytotoxicity at 50 µM [2, 7]: 19.9%
cytotoxicity at 50 µM [2, 8]: 19.4%

Average (% positive control) [1, 3]: 1.141 % positive control
Average IL-1β [1, 4]: 0.082 ng/mL
SMILES: O=C(NCc1nc(-c2cccnc2)no1)Nc1cccc2cnccc12 [L01.062, 1-(isoquinolin-5-yl)-3-{[3-(pyridin-3-yl)-1,2,4-oxadiazol-5-yl]-methyl}urea]
IL-1β [1, 5]: 0.084 ng/mL and 0.087 ng/mL and 0.074 ng/mL
Average (% positive control) [2, 6]: 18.117 % positive control
cytotoxicity at 50 µM [2, 7]: 13.3%
cytotoxicity at 50 µM [2, 8]: 13.4%

Average (% positive control) [1, 3]: 16.099 % positive control
Average IL-1β [1, 4]: 1.154 ng/mL
SMILES: Cc1ccc(NC(=O)Nc2ccccc2)cc1NC(=O)C(F)F [L01.116, 2,2-difluoro-N-{2-meth-yl-5-[(phenylcarbamo-yl)amino]phenyl}acet-amide]
IL-1β [1, 5]: 1.107 ng/mL and 1.192 ng/mL and 1.163 ng/mL
Average (% positive control) [2, 6]: 24.685 % positive control
cytotoxicity at 50 µM [2, 7]: 18.1%
cytotoxicity at 50 µM [2, 8]: 18%

Average IL-1β ([1]; 18.75 μM): 0.777 ng/mL
Average IL-1β ([1]; 37.5 μM): 0.846 ng/mL
Average IL-1β ([1]; 75 μM): 0.890 ng/mL
Average (% positive control) ([1]; IL-1β, 18.75 μM, positive control EN22 18.75 μM): 12.288 % positive control
Average (% positive control) ([1]; IL-1β, 37.5 μM, positive control EN22 18.75 μM): 13.380 % positive control
Average (% positive control) ([1]; IL-1β, 75 μM, positive control EN22 18.75 μM): 14.083 % positive control
SMILES: Cc1c(F)cccc1CN1CCCC(Cc2nc(-c3ccc(NC(=O)Nc4ccccc4)cc3)no2)C1 (stereo not drawn) [PM16, 1-(4-(5-((1-(3-fluoro-2-methylbenzyl)piperidin-3-yl)methyl)-1,2,4-oxadiazol-3-yl)phenyl)-3-phenylurea]
IL-1β ([1]; 18.75 μM, individual replicate values): 0.764 ng/mL and 0.830 ng/mL and 0.736 ng/mL
IL-1β ([1]; 37.5 μM, individual replicate values): 0.895 ng/mL and 0.795 ng/mL and 0.848 ng/mL
IL-1β ([1]; 75 μM, individual replicate values): 0.876 ng/mL and 0.848 ng/mL and 0.948 ng/mL
cytotoxicity at 18.75 µM ([2]; section 1.4, 18.75 μM, read-out: Average LDH release (% of max.)): 72.8%
cytotoxicity at 37.5 µM ([2]; section 1.4, 37.5 μM, read-out: Average LDH release (% of max.)): 90%
cytotoxicity at 75 µM ([2]; section 1.4, 75 μM, read-out: Average LDH release (% of max.)): 97.5%
cytotoxicity at 18.75 µM ([2]; section 1.4, single replicates, 18.75 μM, read-out: LDH release (% of max.)): 72%
cytotoxicity at 37.5 µM ([2]; section 1.4, single replicates, 37.5 μM, read-out: LDH release (% of max.)): 89%
cytotoxicity at 75 µM ([2]; section 1.4, single replicates, 75 μM, read-out: LDH release (% of max.)): 100%
Average (% positive control) ([2]; section 1.4, 18.75 μM, positive control EN22 18.75 μM): 102.052 % positive control
Average (% positive control) ([2]; section 1.4, 37.5 μM, positive control EN22 18.75 μM): 126.179 % positive control
Average (% positive control) ([2]; section 1.4, 75 μM, positive control EN22 18.75 μM): 136.598 % positive control

Average (% positive control) [1, 3]: 15.066 % positive control
Average IL-1β [1, 4]: 1.080 ng/mL
SMILES: O=C(Nc1ccccc1)Nc1ccc(NC(=O)c2ccoc2)cc1 [L01.092, N-{4-[(phenylcarbamo-yl)amino]phenyl}furan-3-carboxamide]
IL-1β [1, 5]: 1.253 ng/mL and 1.060 ng/mL and 0.927 ng/mL
Average (% positive control) [2, 6]: 20.483 % positive control
cytotoxicity at 50 µM [2, 7]: 15%
cytotoxicity at 50 µM [2, 8]: 16.4%
